Measurements published in patent US9951035B2, “Selective matrix metalloproteinase inhibitors” (University of Notre Dame du Lac, priority 2014, dated 2018).
Counter-ions that a name gives are not always drawn. Like-named read-outs stand apart in the source and are kept apart here.

Key:
[1] = Stability in buffers of the kinetic assays; type: physicochemical; conditions: in words
Description: Human recombinant active MMP-2 and MMP-7, and the catalytic domains of MMP-3 and MMP-14/MT1-MMP were purchased from EMD Chemicals, Inc. (San Diego, Calif., USA); human recombinant catalytic domains of MMP-1, MMP-8, and MMP-9 were purchased from Enzo Life Sciences, Inc. (Farmingdale, N.Y., USA); human recombinant active ADAM9 and ADAM10 were purchased from R&D Systems (Minneapolis, Minn., USA). Fluorogenic substrates MOCAc-Pro-Leu-Gly-Leu-A2pr(Dnp)-Ala-Arg-NH2 (for MMP-2, MMP-7, MMP-9 and MMP-14) and MOCAc-Arg-Pro-Lys-Pro-Val-Glu-Nva-Trp-Arg-Lys(Dnp)-NH2 (for MMP-3) were purchased from Peptides International (Louisville, Ky., USA); Mca-KPLGL-Dpa-AR-NH2 (for MMP-1, MMP-8 and ADAM10) and Mca-PLAQAV-Dpa-RSSSR-NH2 (for ADAM9) were purchased from R&D Systems (Minneapolis, Minn., USA). […] Inhibitor stock solutions (10 mM) were prepared fresh in DMSO before enzyme inhibition assays. We followed the same methodology for enzyme inhibition studies as reported by Page-McCaw et al. (Nat. Rev. Mol. Cell Biol. 2007, 8, 221-233). Enzyme inhibition studies were carried out using a Cary Eclipse fluorescence spectrophotometer (Varian, Walnut Creek, Calif., USA). Compounds 4, 5, 6 and 7 were stable in the buffers that were used in the kinetic assays.

[2] = Water solubility (filtrate of saturated aqueous solution, UPLC-MRM)
MMP-1 = MMP-1 (Homo sapiens (Human), UniProt P03956); experiment: Enzyme inhibition studies, MMP-1 catalytic domain; type: biochemical; conditions: at 100 μM; listed as ND-336, HCl salt
Sequence of MMP-1 (P03956 98-276): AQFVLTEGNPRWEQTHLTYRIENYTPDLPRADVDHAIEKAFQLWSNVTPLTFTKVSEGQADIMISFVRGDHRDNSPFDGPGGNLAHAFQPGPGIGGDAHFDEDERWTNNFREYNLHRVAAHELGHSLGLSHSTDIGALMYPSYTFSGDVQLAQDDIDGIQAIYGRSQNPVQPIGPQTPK

MMP-14 = MMP-14 (Homo sapiens (Human), UniProt P50281); experiment: Enzyme inhibition studies, MMP-14 catalytic domain; type: biochemical
diabetic (db/db) mice = experiment: Mouse diabetic wound model; type: in vivo; conditions: compared with ND-322; in words
Description: The excisional mouse diabetic model validated by Sullivan et al. was used (Sullivan et al., Plast. Reconstr. Surg. (2004) 113, 953-960). The procedure for inflicting the wounds (single 8 mm wound on the dorsal region) was the same as described previously (Gooyit et al., ACS Chem. Biol. (2014) 9, 505-510). Wounds were photographed and covered with a sterile 3M Tegaderm™ transparent dressing (Butler Schein Animal Health, Inc.).
Female diabetic db/db (BKS.Cg-Dock7m+/+Leprdb/J, 8-weeks old, 38±3 g, n=24) were used for this study. Wounds were inflicted as described. Treatment with the MMP-2 inhibitor (50 μL of 5.0 mg/mL in 80% propylene glycol/20% DMSO, equivalent to 0.25 mg per wound) or vehicle (50 μL of 80% propylene glycol/20% DMSO) was started one day after wound infliction and continued once a day for 14 days. Digital photographs of wounds were taken on days 0, 7, 10, and 14 while the animals were under isoflurane anesthesia. On day 14, all mice were sacrificed. The wounds were excised, embedded in optimal cutting temperature (OCT) compound, and cryosectioned for histological evaluation.
Female diabetic db/db (BKS.Cg-Dock7m+/+Leprdb/J, 8-weeks old, 38±3 g, n=24) were used for this study. Wounds were inflicted and the following day the wounds were treated topically with MMP-8 (50 μL of 20 μg/mL MMP-8 in reaction buffer) or vehicle (50 μL reaction buffer) once a day for 14 days. The reaction buffer consisted of 50 mM Tris (pH 7.5), 10 mM CaCl2, 150 mM NaCl, and 0.05% (w/v) Brij-35. Digital photographs of the wounds were taken on days 0, 7, 10, and 14 while animals were under isoflurane anesthesia. On days 7 and 14, 12 mice (n=6 per group) were sacrificed. The wounds were excised, embedded in OCT compound, and cryosectioned for histological evaluation.
Photographs were taken using the procedure described by Gooyit et al. (ACS Chem Biol. (2014) 9, 505-510) at a fixed distance above the wounds and calibrated using a ruler included in the photographic frame. Image J 1.48c software was used to calculate wound areas. The percentage of wound closure was calculated from the wound area on the specified day relative to that on day 0.
Fresh wound tissue was harvested and embedded in OCT compound. Subsequently, the tissue was cryosectioned for H&E staining (12-μm thickness) and for apoptosis assays and in-situ zymography (8-μm thickness). Re-epithelialization was assessed on a Nikon Eclipse 90i Fluorescent Microscope (Nikon Instruments Inc.) as described earlier (Tkalcevic et al., Toxicol. Pathol. (2009) 37, 183-192). Apoptosis was evaluated using Derma TACS™ Apoptosis detection kits (Trevigen, Inc.) according to the manufacturer's instructions. The protocol of in-situ zymography was adapted from known methods. Gelatinolytic activity was detected in unfixed cryostat sections using DQ-gelatin as a substrate. DQ-gelatin was prepared at a concentration of 20 μg/mL in Tris-buffered saline (TBS) buffer (50 mM TBS pH 7.6, 1 mM CaCl2). A general MMP inhibitor in 0.5 mM EDTA was prepared as a negative control. Cryostat sections were air-dried for 10 min and incubated in the substrate mixture in the presence and absence of EDTA for 1 hr at room temperature. After the incubation period, the slides were washed in PBS (three times, 5 min each), fixed with 4% paraformaldehyde in PBS for 10 min in the dark, washed again with PBS (three times, 5 min each), incubated in the dark for 5 min with 300 nM DAPI solution, and mounted with anti-quenching mounting medium. Fluorescence of FITC was detected with excitation at 460-500 nm and emission at 512-542 nm. DAPI was detected with excitation at 340-380 nm and emission at 425-∞ nm.
Data are expressed as mean±SD. Wound healing between the groups in the studies were analyzed for statistical significance using a paired Student t-test, where p<0.05 was considered statistically significant.

## NCc1ccc(Oc2ccc(S(=O)(=O)CC3CS3)cc2)cc1 (centres unmarked) [Compound 5, (4-(4-((Thiiran-2-ylmethyl)sulfonyl)phenoxy)phenyl)methanamine HCl salt]
[1]
  stability in the buffers used in the kinetic assays: stable
[2]; HCl salt
  Aq. solubility: 4900 µg/mL
[2]; listed as ND-336, HCl salt
  Aq. solubility: Water Solubility 4.9 mg/mL
[2]; thermodynamic from solid
  solubility: 4900 µg/mL
MMP-1
  Inhibition: Ki (MMP-1) 4% inhibition at 100 μM
MMP-14
  Ki: 120 ± 10 nM
MMP-14; catalytic domain, slow-binding, Ki from koff/kon
  Ki: 120 nM
Diabetic (db/db) mice
  efficacy in mouse model of diabetic wound healing: significantly better efficacy than ND-322
